Legend:
recombinant human FAMIN [1] = biological target: T1, recombinant human FAMIN (Homo sapiens, UniProt Q8IV20); assay: adenosine deaminase activity of FAMIN (adenosine to inosine, LC-MS); assay type: biochemical; details: 10 μg recombinant FAMIN, 10 μM adenosine in PBS, 1 h at 37° C. (FIG. 5A)
T1 construct: twin Strep-tag (followed by short linker and TEV cleavage site) (N, cleaved yes); made in house; host or cells: HEK293T
T1 sequence (Q8IV20 1-430): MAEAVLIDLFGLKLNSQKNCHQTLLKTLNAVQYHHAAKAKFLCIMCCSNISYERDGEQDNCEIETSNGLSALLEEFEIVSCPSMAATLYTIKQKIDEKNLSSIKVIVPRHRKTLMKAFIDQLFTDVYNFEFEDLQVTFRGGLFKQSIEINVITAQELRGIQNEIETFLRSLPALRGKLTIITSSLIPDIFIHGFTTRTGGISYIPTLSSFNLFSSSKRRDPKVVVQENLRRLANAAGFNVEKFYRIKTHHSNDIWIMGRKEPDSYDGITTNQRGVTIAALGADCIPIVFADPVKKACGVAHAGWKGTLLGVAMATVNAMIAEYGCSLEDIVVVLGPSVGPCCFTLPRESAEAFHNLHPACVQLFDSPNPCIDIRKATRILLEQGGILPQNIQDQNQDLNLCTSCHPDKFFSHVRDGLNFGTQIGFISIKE

recombinant human FAMIN [2] = biological target: T1, recombinant human FAMIN; assay: adenosine phosphorylase activity of FAMIN (adenosine to adenine and ribose-1-phosphate, LC-MS); assay type: biochemical; details: 10 μg recombinant FAMIN, 10 μM adenosine in PBS, 1 h at 37° C. (FIG. 5B, 5C)
Protocol: (§1) FIGS. 5B and 5C show levels of adenine and ribose-1-phosphate ([…]) in the reaction described in FIG. 5A. […] For enzyme kinetic assays a further chromatographic approach was used to allow for analysis of all substrates and products using a single assay. A Waters BEH C8 column was used (100×2.1 mm, 1.7 μm) with a weak mobile phase (A) of aqueous 10 mM ammonium acetate with 0.1% ammonia and a strong mobile phase (B) of acetonitrile. For gradient elution mobile phase B was held at 0% for 1.6 min, followed by a linear gradient to 30% B over 4.0 minutes, a further increase to 90% over 1 min, and a hold at 90% B for 1 min, with re-equilibration for 1.5 minutes giving a total run time of 6.5 minutes. The flow rate was 0.5 mL/min and the injection volume was 2 μL. The needle wash used was 4:1 water:acetonitrile. Putative enzymatic function of recombinant human strep-tagged FAMIN was investigated against aqueous HepG2 metabolite extracts (dried, Folch extracted from 5×10^6 cells) or nucleoside substrates at indicated concentrations and detected using HPLC-MS as described above. Unless otherwise indicated in the figure legends, HEK293T cell-expressed protein was used for all assays. The reaction mixture (final volume 100 μL) consisted of 10 μg of recombinant protein and 10 μM nucleoside substrate in Dulbecco's PBS (Thermo Fisher), pH 7.4 unless otherwise indicated. The samples were incubated at 37° C. for 1 h and then quenched with ×5 volume of ice-cold methanol. Samples were centrifuged at 21,000 g for 5 min transferred to fresh tubes and then dried down prior to analysis as described above.

recombinant human FAMIN [3] = biological target: T1, recombinant human FAMIN; assay: specificity of FAMIN activity towards purine and pyrimidine nucleosides (substrate consumption, LC-MS); assay type: biochemical; details: pure substrate with 10 μg recombinant FAMIN in 100 μl PBS, pH 7.4, 1 h at 37° C. (FIG. 2A, 2N, 2R, 2S)
Description: Peak intensity of each extracted chromatogram per given m/z value normalised to maximum level of 100. Controls as indicated include reaction buffer (PBS), protein elution buffer as described in methods, recombinant FAMIN without substrate or protein buffer with adenosine substrate. […] FIGS. 2C, 2D, 2E, and 2F show representative chromatograms and mass spectra for (2C) adenine, (2D) hypoxanthine, (2E) inosine and (2F) ribose-1-phosphate. Upper panels: (2C-E) extracted positive ion chromatogram showing injection of (2C) 1 μM standard of adenine; (2D) 5 μM standard of hypoxanthine; (2E) 5 μM standard of inosine on a BEH C8 column; (2F) extracted negative ion chromatogram showing injection of a 5 μg/mL standard of ribose-1-phosphate on a BEH amide HILIC column. All measurements performed using the Q Exactive Orbitrap and extracted at m/z values of (2C) adenine [M+H]^+: 136.0617, (2D) hypoxanthine [M+H]^+: 137.0457, (2E) inosine [M+H]^+: 269.0877 and (2F) ribose-1-phosphate [M−H]^−: 229.0119 at a tolerance of 2 ppm. Middle panels: Corresponding extracted chromatograms of a representative sample (10 μg recombinant FAMIN^254I incubated with 10 μM adenosine for 1 h in 100 μl phosphate-buffered saline). Peaks at indicated retention times perfectly match those of adenine, hypoxanthine, inosine and ribose-1-phosphate standards. Lower panels: high resolution Fourier transform mass spectrometry (FTMS) mass spectrum of the representative FAMIN^254I incubated sample during the peaks putatively identified as (2C) adenine, (2D) hypoxanthine, (2E) inosine, or (2F) ribose-1-phosphate. Nominal m/z values of (2C) 136, (2D) 137, (2E) 269 and (2F) 229, respectively, were selectively targeted and fragmented using a higher-energy collision dissociation (HCD) collision voltage of 25 eV to give the fragments shown. […] Calculated from absolute levels of hypoxanthine and inosine quantified using ^13C2, ^15N1-hypoxanthine and ^15N4-inosine internal standards, and adenine levels estimated using adenine external standard. […] (SAM; S-adenosylmethionine; MTA, S-methyl-5′-thioadenosine; 2′-dA, 2′-deoxyadenosine; n=3, mean±S.E.M.). […] FIGS. 2P and 2Q show on the left FAMIN catalysed enzymatic reactions. On the right they show levels of guanine or hypoxanthine and ribose-1-phosphate in reactions containing 100 μM guanosine or inosine and recombinant FAMIN or buffer control in 100 μl after 1 h at 37° C. (n=3, mean±S.E.M.). […] On the lower panels adenine, 2′-deoxyinosine, hypoxanthine and deoxyribose-1-phosphate levels following incubation of 10 μg recombinant FAMIN or buffer control with 10 μM 2′deoxyadenosine for 1 h in 100 μl PBS (n=3 each, mean±S.E.M.). […] All metabolite level data in this figure measured as area under the chromatographic peak, normalised for total ion content. *P<0.05 (unpaired, two-tailed Student's t-test).
(§2) Putative enzymatic function of recombinant human strep-tagged FAMIN was investigated against aqueous HepG2 metabolite extracts (dried, Folch extracted from 5×10^6 cells) or nucleoside substrates at indicated concentrations and detected using HPLC-MS as described above. Unless otherwise indicated in the figure legends, HEK293T cell-expressed protein was used for all assays. The reaction mixture (final volume 100 μL) consisted of 10 μg of recombinant protein and 10 μM nucleoside substrate in Dulbecco's PBS (Thermo Fisher), pH 7.4 unless otherwise indicated. The samples were incubated at 37° C. for 1 h and then quenched with ×5 volume of ice-cold methanol. Samples were centrifuged at 21,000 g for 5 min transferred to fresh tubes and then dried down prior to analysis as described above.

recombinant human FAMIN [4] = biological target: T1, recombinant human FAMIN; assay: purine nucleoside phosphorylase activity of FAMIN (inosine to hypoxanthine and ribose-1-phosphate, LC-MS); assay type: biochemical; details: 10 μg recombinant FAMIN, 10 μM inosine in PBS, 1 h at 37° C. (FIG. 5D, 5E)
Protocol: as §1, with “The samples were incubated at 37° C. for 1 h and then quenched with ×5 volume of ice-cold methanol. Samples were centrifuged at 21,000 g for 5 min transferred to fresh tubes and then dried down prior to analysis as described above.” left out

[5] = substrate: OC[C@H]1O[C@@H](n2cnc3c(O)ncnc32)[C@H](O)[C@@H]1O; assay: as above; assay type: biochemical, human; details: other: 500 nM to 100 μM inosine, hypoxanthine production, 1 h at 37° C., pH 7.4 (FIG. 3A)
Protocol: as §1, with “The samples were incubated at 37° C. for 1 h and then quenched with ×5 volume of ice-cold methanol. Samples were centrifuged at 21,000 g for 5 min transferred to fresh tubes and then dried down prior to analysis as described above.” left out

[6] = substrate: CSC[C@H]1O[C@@H](n2cnc3c(N)ncnc32)[C@H](O)[C@@H]1O; assay: S-methyl-5'-thioadenosine phosphorylase activity of FAMIN (MTA to adenine, LC-MS); assay type: biochemical, human; details: other: 500 nM to 100 μM MTA, adenine production, 1 h at 37° C., pH 7.4 (FIG. 3A)
Protocol: Activity measured as inosine, hypoxanthine and adenine production following incubation with protein for 1 h at 37° C. at pH 7.4.
For enzyme kinetic assays a further chromatographic approach was used to allow for analysis of all substrates and products using a single assay. A Waters BEH C8 column was used (100×2.1 mm, 1.7 μm) with a weak mobile phase (A) of aqueous 10 mM ammonium acetate with 0.1% ammonia and a strong mobile phase (B) of acetonitrile. For gradient elution mobile phase B was held at 0% for 1.6 min, followed by a linear gradient to 30% B over 4.0 minutes, a further increase to 90% over 1 min, and a hold at 90% B for 1 min, with re-equilibration for 1.5 minutes giving a total run time of 6.5 minutes. The flow rate was 0.5 mL/min and the injection volume was 2 μL. The needle wash used was 4:1 water:acetonitrile.
as §2, with “The samples were incubated at 37° C. for 1 h and then quenched with ×5 volume of ice-cold methanol. Samples were centrifuged at 21,000 g for 5 min transferred to fresh tubes and then dried down prior to analysis as described above.” left out

[7] = substrate: Nc1ncnc2c1ncn2[C@@H]1O[C@H](CO)[C@@H](O)[C@H]1O; assay: adenosine phosphorylase activity of FAMIN (adenosine to adenine and ribose-1-phosphate, LC-MS); assay type: biochemical, human; details: other: 500 nM to 100 μM adenosine, adenine production, 1 h at 37° C., pH 7.4 (FIG. 3A)
Protocol: as §1, with “The samples were incubated at 37° C. for 1 h and then quenched with ×5 volume of ice-cold methanol. Samples were centrifuged at 21,000 g for 5 min transferred to fresh tubes and then dried down prior to analysis as described above.” left out

[8] = substrate: Nc1ncnc2c1ncn2[C@@H]1O[C@H](CO)[C@@H](O)[C@H]1O; assay: adenosine deaminase activity of FAMIN (adenosine to inosine, LC-MS); assay type: biochemical, human; details: other: 500 nM to 100 μM adenosine, inosine production, 1 h at 37° C., pH 7.4 (FIG. 3A)

## CCCCCC[C@@H]([C@@H](C)O)n1cnc2c(N)ncnc21 (racemic) [EHNA, erythro-9-(2-hydroxy-3-nonyl)adenine]
Recombinant human FAMIN [1]
  effect on adenosine deaminase activity of FAMIN (levels of inosine): inhibited
Recombinant human FAMIN [2]
  effect on FAMIN's adenosine phosphorylase activity (levels of adenine and R-1-P from adenosine): intact

## Nc1ncnc2c1ncn2[C@H]1C[C@H](O)[C@@H](CO)O1 [2′-deoxy-adenosine, 2′-deoxyadenosine]
Recombinant human FAMIN [3]
  metabolised by FAMIN as pure substrate: metabolised

## C[C@H]1O[C@@H](n2cnc3c(N)ncnc32)[C@H](O)[C@@H]1O [5′-deoxy-adenosine, 5′-deoxyadenosine]
Recombinant human FAMIN [3]
  metabolised by FAMIN as pure substrate: substrate of FAMIN

## Nc1nc2c(nc(N)n2[C@@H]2O[C@H](CO)[C@@H](O)[C@H]2O)c(=O)[nH]1 [8-aminoguanosine]
Recombinant human FAMIN [4]
  effect on FAMIN's purine nucleoside phosphorylase activity (generation of hypoxanthine and R-1-P from inosine): inhibited
Recombinant human FAMIN [2]
  effect on FAMIN's adenosine phosphorylase activity (levels of adenine and R-1-P from adenosine): did not affect

## CSC[C@H]1O[C@@H](n2cnc3c(N)ncnc32)[C@H](O)[C@@H]1O [MTA, S-methyl-5′-thioadenosine]
Recombinant human FAMIN [3]
  metabolised by FAMIN as pure substrate: metabolised

## C[S+](CC[C@H](N)C(=O)[O-])C[C@H]1O[C@@H](n2cnc3c(N)ncnc32)[C@H](O)[C@@H]1O (some centres unmarked) [SAM, S-adenosylmethionine]
Recombinant human FAMIN [3]
  metabolised by FAMIN as pure substrate: not

## Nc1ncnc2c1ncn2[C@@H]1O[C@H](CO)[C@@H](O)[C@H]1O [adenosine]
Recombinant human FAMIN [3]
  metabolised by FAMIN as pure substrate: consumed

## Nc1ccn([C@@H]2O[C@H](CO)[C@@H](O)[C@H]2O)c(=O)n1 [cytidine]
Recombinant human FAMIN [3]
  metabolised by FAMIN as pure substrate: No activity

## Nc1nc2c(ncn2[C@@H]2O[C@H](CO)[C@@H](O)[C@H]2O)c(=O)[nH]1 [guanosine]
Recombinant human FAMIN [3]
  metabolised by FAMIN as pure substrate: metabolised

## OC[C@H]1O[C@@H](n2cnc3c(O)ncnc32)[C@H](O)[C@@H]1O [inosine]
Recombinant human FAMIN [3]
  metabolised by FAMIN as pure substrate: metabolised

## OC[C@H]1O[C@@H](n2cnc3c2NC=NC[C@H]3O)C[C@@H]1O [pentostatin]
Recombinant human FAMIN [2]
  effect on FAMIN's adenosine phosphorylase activity (levels of adenine and R-1-P from adenosine): intact

B1: recombinant human FAMIN (Homo sapiens) (protein)
chain: T1 sequence (Q8IV20 1-430)
notes: twin Strep-tag (followed by short linker and TEV cleavage site) (N, cleaved yes); made in house; host or cells: HEK293T
[5]
  Km: 41 µM
[6]
  Km: 1 µM
[7]
  Km: 36 µM
[8]
  Km: 11 µM
